Laboratory results published in patent publication US10188615B2, “Alkoxy compounds for disease treatment” (Acucela Inc., priority 2007, dated 2019).
pIC50: −log10 of the molar value. Read-outs that look alike come from different tables or passages of the source.

Legend:
isomerase = isomerase (Mus musculus (Mouse), UniProt Q91ZQ5); assay: In vivo murine isomerase assay (recovery of 11-cis-retinal after photobleaching); design: species or system mice; details: for inhibition at 1 mg/kg: read-out: % Inhibition 1 mg/kg, 4 h; for ED50: in vivo inhibition of isomerase, Table 10
isomerase, sequence (Q91ZQ5 whole entry): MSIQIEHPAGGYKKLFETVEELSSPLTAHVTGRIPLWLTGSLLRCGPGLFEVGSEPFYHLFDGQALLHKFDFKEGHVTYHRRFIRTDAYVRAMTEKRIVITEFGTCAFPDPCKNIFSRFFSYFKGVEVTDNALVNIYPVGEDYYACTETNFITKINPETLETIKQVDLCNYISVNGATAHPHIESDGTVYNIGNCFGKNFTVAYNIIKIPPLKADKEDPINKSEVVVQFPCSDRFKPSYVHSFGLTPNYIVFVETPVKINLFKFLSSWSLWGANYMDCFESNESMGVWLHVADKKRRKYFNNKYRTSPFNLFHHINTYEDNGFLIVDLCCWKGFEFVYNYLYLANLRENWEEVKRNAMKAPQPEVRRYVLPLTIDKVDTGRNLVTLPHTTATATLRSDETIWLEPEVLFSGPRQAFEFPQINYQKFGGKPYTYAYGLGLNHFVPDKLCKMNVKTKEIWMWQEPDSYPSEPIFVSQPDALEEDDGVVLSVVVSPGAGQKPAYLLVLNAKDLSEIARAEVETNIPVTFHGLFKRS
Protocol: The capability of compounds described herein to inhibit isomerase was determined by an in vivo murine isomerase assay. Brief exposure of the eye to intense light (“photobleaching” of the visual pigment or simply “bleaching”) is known to photo-isomerize almost all 11-cis-retinal in the retina. The recovery of 11-cis-retinal after bleaching can be used to estimate the activity of isomerase in vivo. Delayed recovery, as represented by lower 11-cis-retinal oxime levels, indicates inhibition of isomerization reaction.
The mice were allowed to recover 2 hours in the dark. The animals were then sacrificed by carbon dioxide inhalation. Retinoids were extracted from the eye and the regeneration of 11-cis-retinal was assessed at various time intervals.
After the mice were sacrificed, the eyes were immediately removed and placed in liquid nitrogen for storage.
The eyes were placed in 500 μL of bis-tris propane buffer (10 mM, pH ˜7.3) and 20 µL of 0.8M hydroxile amine (pH-7.3). The eyes were cut up into small pieces with small iris scissors and then thoroughly homogenized at 30000 rpm with a mechanical homogenizer (Polytron PT 1300 D) in the tube until no visible tissue remained. 500 μL of methanol and 500 μL of heptane were added to each tube. The tubes were attached to a vortexer so that the contents were mixed thoroughly for 15 minutes in room temperature. The organic phase was separated from the aqueous phase by centrifugation for 10 min at 13K rpm, 4° C. 240 μL of the solution from the top layer (organic phase) was removed and transferred to clean 300 μl glass inserts in HPLC vials using glass pipette and the vials were crimped shut tightly.
Loading volume for each sample is 100 μl; detection wavelength is 360 nm. The area under the curve for 11-cis retinal oxime was calculated by Agilent Chemstation software and was recorded manually. Data processing was performed using Prizm software.
Positive control mice (no compound administered) were sacrificed fully dark-adapted and the eye retinoids analyzed. Light (bleached) control mice (no compound administered) were sacrificed and retinoids isolated and analyzed immediately after light treatment.
Mice were sacrificed 2 hours after bleaching, eyes were enucleated, and retinoid content was analyzed by HPLC.
Recovery control mice (vehicle-only treated) were light-treated and left to recover for 2 hours in the dark before sacrifice and analysis. Light control mice (vehicle only treated) were sacrificed for analysis immediately after photo-bleaching.

visual cycle isomerase = visual cycle isomerase (Bos taurus (Bovine), UniProt Q28175); assay: Bovine in vitro isomerase inhibition assay (RPE microsome membranes)
visual cycle isomerase, sequence (Q28175 2-533): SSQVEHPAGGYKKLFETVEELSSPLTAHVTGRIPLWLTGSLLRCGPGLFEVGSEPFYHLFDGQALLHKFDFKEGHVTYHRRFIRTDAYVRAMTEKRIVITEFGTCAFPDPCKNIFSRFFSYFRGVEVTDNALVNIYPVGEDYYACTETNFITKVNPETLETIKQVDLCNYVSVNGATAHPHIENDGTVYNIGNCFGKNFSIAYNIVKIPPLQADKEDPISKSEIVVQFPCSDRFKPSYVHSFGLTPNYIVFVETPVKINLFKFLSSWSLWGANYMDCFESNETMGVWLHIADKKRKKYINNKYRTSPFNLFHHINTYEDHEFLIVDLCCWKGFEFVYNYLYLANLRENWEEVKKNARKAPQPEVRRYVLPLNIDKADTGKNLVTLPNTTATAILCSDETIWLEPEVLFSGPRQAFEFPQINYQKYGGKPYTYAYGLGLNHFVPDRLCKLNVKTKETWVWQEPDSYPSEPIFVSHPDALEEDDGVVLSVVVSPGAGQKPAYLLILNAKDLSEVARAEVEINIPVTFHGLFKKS
Protocol: The capability of compounds disclosed herein to inhibit the activity of a visual cycle isomerase was determined.
All tests were performed in duplicate.

[1] = target: recombinant human RPE65 and LRAT (Homo sapiens (Human), UniProt Q16518); assay: Human in vitro isomerase inhibition assay; type: biochemical; details: Human in vitro Inhibition data; inhibition of 11-cis-retinol formation; HEK293 homogenate, all-trans-retinol about 20 μM, 37° C., one hour; given as ranges
recombinant human RPE65 and LRAT, sequence (Q16518 2-533): as the sequence (Q28175 2-533) above, with S2I, I135V, V154I, I299L, H320N, E321G, G426C counted along it
Protocol: The concentration dependent effect of the compounds disclosed herein on the retinol isomerization reaction was also evaluated with a recombinant human enzyme system. […] A homogenate of HEK293 cell clone expressing recombinant human RPE65 and LRAT were the source of the visual enzymes, and exogenous all-trans-retinol (about 20 μM) was used as the substrate. Recombinant human CRALBP (about 80 ug/mL) was added to enhance the formation of 11 cis-retinal. The 200 μL Bis-Tris Phosphate buffer (10 mM, pH 7.2) based reaction mixture also contains 0.5% BSA, and 1 mM NaPPi. In this assay, the reaction was carried out at 37° C. in duplicates for one hour and was terminated by addition of 300 μL methanol. The amount of reaction product, 11-cis-retinol, was measured by HPLC analysis following Heptane extraction of the reaction mixture. […] The ability of the numerous compounds disclosed herein to inhibit isomerization reaction is quantified and the respective IC50 value is determined.

[2] = Bovine in vitro Inhibition data, inhibition of 11-cis retinol formation, bovine RPE microsomes, 20 μM all-trans retinol, 37° C., 30 minutes, given as ranges

| SMILES | inhibition at 1 mg/kg (isomerase) | pIC50 [1] | also measured |
| --- | --- | --- | --- |
| CCCC(CCC)COc1cccc(CCCN)c1 [Example 2, 3-(3-(2-Propylpentyloxy)phenyl)propan-1-amine] | 1% | – | pIC50 (visual cycle isomerase; [2]): ≥ 6.00 |
| CCC(CC)COc1cccc(CCCN)c1 [Example 3, 3-(3-(2-Ethylbutoxy)phenyl)propan-1-amine] | 12% | – | pIC50 (visual cycle isomerase; [2]): ≥ 6.00 |
| NCCC(=O)c1cccc(OCC2CCCCC2)c1 [Example 5, 3-Amino-1-(3-(cyclohexylmethoxy)phenyl)propan-1-one] | – | – | ED50 (isomerase): 1 mg/kg; pIC50 (visual cycle isomerase; [2]): ≥ 6.00 |
| NCC(O)Cc1cccc(OCC2CCCCC2)c1 (centres unmarked) [Example 6, 1-Amino-3-(3-(cyclohexylmethoxy)phenyl)propan-2-ol] | – | – | pIC50 (visual cycle isomerase; [2]): ≥ 6.00 |
| NCCOc1cccc(OCc2ccccc2)c1 [Example 8, 2-(3-(Benzyloxy)phenoxy)ethanamine] | – | – | pIC50 (visual cycle isomerase): 5.00 to 6.00 |
| NCCCc1cccc(OCC2(O)CCCCC2)c1 [Example 10, 1-((3-(3-Aminopropyl)phenoxy)methyl)cyclohexanol] | – | – | pIC50 (visual cycle isomerase; [2]): ≥ 6.00 |
| NCCCc1cccc(OCC2(O)CCCCCC2)c1 [Example 11, 1-((3-(3-aminopropyl)phenoxy)methyl)cycloheptanol] | – | – | pIC50 (visual cycle isomerase; [2]): ≥ 6.00 |
| NCCOc1cccc(OCC2(O)CCCCCC2)c1 [Example 18, 1-((3-(2-Aminoethoxy)Phenoxy)Methyl)Cycloheptanol] | – | – | pIC50 (visual cycle isomerase): 5.00 to 6.00 |
| CC(=O)NCCC(O)c1cccc(OCC2CCCCC2)c1 (centres unmarked) [Example 19, N-(3-(3-(cyclohexylmethoxy)phenyl)-3-hydroxypropyl)acetamide] | – | – | pIC50 (visual cycle isomerase): 5.00 to 6.00 |
| NCCC(O)c1cccc(OCC2CCC2)c1 (centres unmarked) [Example 34, 3-Amino-1-(3-(cyclobutylmethoxy)phenyl)propan-1-ol] | – | ≥ 8.00 | – |
| NCCC(O)c1cccc(OCC2CCCC2)c1 (centres unmarked) [Example 35, 3-Amino-1-(3-(Cyclopentylmethoxy)Phenyl)Propan-1-Ol] | 95% | ≥ 8.00 | – |
| CCC(CC)COc1cccc(C(O)CCN)c1 (centres unmarked) [Example 45, 3-Amino-1-(3-(2-ethylbutoxy)phenyl)propan-1-ol] | 98% | ≥ 8.00 | – |
| NCCC(O)c1cccc(OCC2CC3CCC2C3)c1 (centres unmarked) [Example 48, 3-Amino-1-(3-(bicyclo[2.2.1]heptan-2-ylmethoxy)phenyl)propan-1-ol] | 47% | ≥ 8.00 | – |
| CCCC(CCC)COc1cccc([C@H](O)[C@H](C)CN)c1 [Example 55, (1R,2R)-3-Amino-2-methyl-1-(3-(2-propylpentyloxy)phenyl)propan-1-ol] | 82% | ≥ 8.00 | – |
| C[C@H](CN)[C@@H](O)c1cccc(OCC2CCCC2)c1 [Example 56, (1R,2R)-3-Amino-1-(3-(cyclopentylmethoxy)phenyl)-2-methylpropan-1-ol] | 10% | ≥ 8.00 | – |
| CCC(CC)COc1cccc([C@H](O)[C@H](C)CN)c1 [Example 72, (1R,2R)-3-Amino-1-(3-(2-ethylbutoxy)phenyl)-2-methylpropan-1-ol] | 13% | ≥ 8.00 | – |
| CCCCCOc1cccc(C(O)CCN)c1 (centres unmarked) [Example 87, 3-Amino-1-(3-(pentyloxy)phenyl)propan-1-ol] | – | ≥ 8.00 | – |
| COCCCCOc1cccc(C(O)CCN)c1 (centres unmarked) [Example 88, 3-Amino-1-(3-(4-methoxybutoxy)phenyl)propan-1-ol] | 78% | ≥ 8.00 | – |
| Cc1ccc(COc2cccc(CCCN)c2)cc1 [Example 119, 3-(3-(4-Methylbenzyloxy)phenyl)propan-1-amine] | – | – | IC50 (μM) [1]: No detectable |
| NCCCc1cccc(OCc2ccc(Cl)cc2)c1 [Example 120, 3-(3-(4-Chlorobenzyloxy)phenyl)propan-1-amine] | – | – | IC50 (μM) [1]: No detectable |
| COc1ccc(COc2cccc(CCCN)c2)cc1 [Example 121, 3-(3-(4-Methoxybenzyloxy)phenyl)propan-1-amine] | – | – | IC50 (μM) [1]: No detectable |
| NCCS(=O)(=O)c1cccc(OCC2CCCCC2)c1 [Example 125, 2-(3-(Cyclohexylmethoxy)phenylsulfonyl)ethanamine] | 4% | – | – |
| N=C(N)CC(O)c1cccc(OCC2CCCCC2)c1 (centres unmarked) [Example 130, 3-(3-(Cyclohexylmethoxy)phenyl)-3-hydroxypropanimidamide] | 3% | – | – |
| NCCOc1cccc(OCCO)c1 [Example 141, 2-(3-(2-Aminoethoxy)phenoxy)ethanol] | – | – | IC50 (μM) [1]: No detectable |
| NCC[C@@H](O)c1cccc(OC[C@@H]2CCCC[C@H]2O)c1 [Example 175, (1,2-trans)-2-((3-((R)-3-Amino-1-hydroxypropyl)phenoxy)methyl)cyclohexanol] | – | ≥ 8.00 | – |
| CN(C)CCC(=O)c1cccc(OCC2CCCCC2)c1 [Example 182, 1-(3-(Cyclohexylmethoxy)phenyl)-3-(dimethylamino)propan-1-one] | – | < 5.00 | – |

The next lines start with results.

| inhibition at 1 mg/kg (isomerase) | pIC50 [1] | SMILES | also measured |
| --- | --- | --- | --- |
| 68% | – | NCCCc1cccc(OCC2CCCCC2)c1 [Example 1, 3-(3-(Cyclohexylmethoxy)phenyl)propan-1-amine] | pIC50 (visual cycle isomerase; [2]): ≥ 6.00 |
| 17% | – | NCCOc1cccc(OCC2CCCCC2)c1 [Example 7, 2-(3-(Cyclohexylmethoxy)phenoxy)ethanamine] | ED50 (isomerase): 4.2 mg/kg; pIC50 (visual cycle isomerase; [2]): ≥ 6.00 |
| 6% | – | NCCOc1cccc(OCC2CCCCCC2)c1 [Example 9, 2-(3-(Cycloheptylmethoxy)phenoxy)ethanamine] | pIC50 (visual cycle isomerase; [2]): ≥ 6.00 |
| 57% | ≥ 8.00 | CCC(O)(CC)COc1cccc(C(O)CCN)c1 (centres unmarked) [Example 30, 3-((3-(3-Amino-1-hydroxypropyl)phenoxy)methyl)pentan-3-ol] | – |
| 6% | – | NCCOc1cccc(OCCc2ccccc2)c1 [Example 47, 2-(3-Phenethoxyphenoxy)ethanamine] | – |
| 23% | – | C[C@@H](CN)[C@H](O)c1cccc(OCC2CCCCC2)c1 [Example 73, (1S,2S)-3-Amino-1-(3-(Cyclohexylmethoxy)Phenyl)-2-Methylpropan-1-Ol] | – |
| 6% | ≥ 8.00 | C[C@H](CN)[C@@H](O)c1cccc(OCC2CCCCC2)c1 [Example 74, (1R,2R)-3-Amino-1-(3-(Cyclohexylmethoxy)Phenyl)-2-Methylpropan-1-Ol] | – |
| 22% | – | COCCOCCOCC(=O)NCCC(O)c1cccc(OCC2CCCCC2)c1 (centres unmarked) [Example 77, N-(3-(3-(Cyclohexylmethoxy)phenyl)-3-hydroxypropyl)-2-(2-(2-methoxyethoxy)ethoxy)acetamide] | – |
| 62% | – | CC(C)CCOc1cccc(C(O)CCN)c1 (centres unmarked) [Example 107, 3-Amino-1-(3-(isopentyloxy)phenyl)propan-1-ol] | – |
| – | ≥ 8.00 | NCCC(O)c1cccc(OCC2CCC(F)(F)CC2)c1 (centres unmarked) [Example 169, 3-Amino-1-(3-((4,4-difluorocyclohexyl)methoxy)phenyl)propan-1-ol] | – |
| – | < 5.00 | COC(=O)c1cc(CCCN)cc(OCC2CCCCC2)c1 [Example 170, Methyl 3-(3-aminopropyl)-5-(cyclohexylmethoxy)benzoate] | – |
| – | ≥ 8.00 | NCC[C@@H](O)c1cccc(OC[C@H]2CC[C@@H](O)CC2)c1 [Example 171, (1,4-Cis)-4-((3-((R)-3-Amino-1-Hydroxypropyl)Phenoxy)Methyl)Cyclohexanol] | – |
| – | ≥ 8.00 | NCC[C@@H](O)c1cccc(OC[C@H]2CC[C@H](O)CC2)c1 [Example 172, (1,4-Trans)-4-((3-((R)-3-Amino-1-Hydroxypropyl)Phenoxy)Methyl)Cyclohexanol] | – |
| – | ≥ 8.00 | NCC[C@@H](O)c1cccc(OC[C@H]2CCCC[C@H]2O)c1 [Example 176, (1,2-cis)-2-((3-((R)-3-Amino-1-hydroxypropyl)phenoxy)methyl)cyclohexanol] | – |
